Source: patent publication US6511979B1, “Methods for treating conditions modulated by lactosylceramide” (Johns Hopkins University, priority 1998, dated 2003)
Entries after “also recorded” stand apart in the source; their conditions may differ.

Tests used:
[1] = biological target: T1, GlcT-1 (Homo sapiens, UniProt Q16739); conditions: reported in literature; cited from earlier work
T1 sequence (Q16739 1-394): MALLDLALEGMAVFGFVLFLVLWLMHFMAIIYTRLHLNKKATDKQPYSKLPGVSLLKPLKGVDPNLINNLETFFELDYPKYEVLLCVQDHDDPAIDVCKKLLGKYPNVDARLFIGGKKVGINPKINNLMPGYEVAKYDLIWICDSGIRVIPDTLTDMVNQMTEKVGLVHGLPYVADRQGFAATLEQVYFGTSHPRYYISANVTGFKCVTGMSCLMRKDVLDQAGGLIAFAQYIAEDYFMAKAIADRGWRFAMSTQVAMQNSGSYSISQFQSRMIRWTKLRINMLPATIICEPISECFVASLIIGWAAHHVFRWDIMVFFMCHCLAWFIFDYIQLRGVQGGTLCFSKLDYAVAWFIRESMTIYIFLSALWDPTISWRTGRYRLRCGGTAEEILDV

[2] = test system: vascular cells; conditions: reported in literature; cited from earlier work
[3] = test system: LacCer-responsive cells; assay: cell proliferation in LacCer-responsive cells; type: cell-based
Method: Preferably, the GalT-2 enhancing compound promotes cell proliferation by at least 10 to 25%, preferably at least about 50%, relative to a suitable control assay. In such an assay, between about 0.1 to 100 μM, preferably between about 1 to 50 μM of a desired GalT-2 enhancing compound is used. Exemplary cell proliferation assays include counting viable cells and monitoring activity of specified citric acid cycle enzymes such as lactate dehydrogenase. A preferred assay measures incorporation of one or more detectably-labeled nucleosides into DNA, e.g., by:
a) culturing suitable cells in medium and adding 1) a candidate GalT-2 enhancing compound and 2) a radiolabeled nucleoside such as ^3H-thymidine typically in an amount between about 0.1 to 100 μCi;
b) incubating the cells, e.g., for about 6-24 hours, and typically followed by washing; and
The measurement can be achieved by several methods including trichloroacetic acid (TCA) precipitation of labeled DNA on filters followed by scintillation counting. See e.g., Chatterjee, S., Biochem. Biophys. Res Comm. (1991) 181:554; Chatterjee, S. et al. (1982) Eur. J. Biochem. 120:435 for disclosure relating to this assay.
References herein to a “standard in vitro cell proliferation assay” or other similar phrase refer to an assay that includes the above steps a) through c). […]

[4] = test system: LacCer-responsive cells; assay: cell adhesion in LacCer-responsive cells; type: cell-based
Method: Preferably, the GalT-2 enhancing compound increases cell adhesion by at least 25%, preferably at least 50% or more relative to a suitable control assay. In such an assay, between about 0.1 to 100 μM, preferably between about 1 to 50 μM of a desired GalT-2 enhancing compound is used. For example, a preferred cell adhesion assay includes the following steps:
a) labeling a first population of immune cells, preferably certain leukocytes, with a detectable label which can be a chromatic, radioactive, luminescent (e.g., fluorescent, or phosphorescent), or enzymatic label capable of producing a detectable label, […]
References herein to a “standard in vitro cell adhesion assay” or other similar phrase refer to an assay that includes the above steps a) through c). The detection in step c) can be achieved by a variety of methods such as microscopy (by manually counting cells), particularly confocal microscopy and fluorescence-based photomicroscopy involving FACS; automated cell sorting techniques, immunological methods such as ELISA and RIA; and scintillation counting. […]
A preferred in vitro cell adhesion assay measures polymorphonuclear leukocytes (PMNs and/or monocytes) or platelets and increased endothelial cell adhesion before, during or after contact with a desired GalT-2 enhancing compound. […] Adhering cells are then quantitated by standard methods such as by use of a fluorescence plate reader. […]

[5] = test system: GalT-2; assay: GalT-2 activity assay (standard in vitro GalT-2 assay / GalT-2 enzyme assay); type: cell-based
Description: Preferred in vitro detection assays according to the present invention involve one or more steps associated with LacCer-related pathways. Such assays include the following steps 1) through 4):
1) culturing a population of LacCer-responsive cells with LacCer;
2) adding a known or candidate GalT-2 enhancing compound to the cells;
3) measuring activity of a cell molecule or function in the LacCer-related pathway; and
4) determining the effect of the known or candidate GalT-2 enhancing compound on the cell, e.g., by measuring activity of the cell molecule or function. Typically, the cell function will be one or more of cell proliferation, cell adhesion or expression of specified surface proteins on the cells. Examples of cell molecules include LacCer-responsive enzymes as specified below.
That assay can effectively measure the capacity of the GalT-2 enhancing compound to promote GalT-2 activity. References herein to a “standard in vitro GalT-2 assay” or other similar phrase refers to the above protocol of steps 1) through 4) when the specified cell molecule measured in step 3) above is GalT-2. As described in more detail below, other in vitro assays of the invention measure specified cell molecules in the LacCer-related steps or pathways. The in vitro assays of the present invention can be conducted with nearly any population of cells responsive to LacCer as provided below. […]

CCCCCCCCCC(=O)NC(CN1CCOCC1)C(O)c1ccccc1 [D-PDMP, 1-phenyl-2-decanolylamino-3-morpholino-1-propanol]
effect on GlcT-1 [1]: inhibits GlcT-1
effect on proliferation of vascular cells [2]: reduces proliferation of vascular cells

CCCCCCCCCC(=O)N[C@@H](CN1CCOCC1)C(O)c1ccccc1 (stereo partly drawn) [L-PDMP, L-1-phenyl-2-decanoylamino-3-morpholino-1-propanol]
effect on proliferation in LacCer-responsive cells [3]: increasing proliferation
effect on adhesion in LacCer-responsive cells [4]: increasing proliferation and adhesion
effect on GalT-2 activity [5]: increase the activity of GalT-2; also recorded: effectively stimulating GalT-2
